Columns and labels:
[1] = tested on: RARE reporter in the SW962 vulvar carcinoma cell line; assay: RARE reporter transactivation through endogenous receptors; format: cell-based
Experimental: Both heteroarotinoids 11 and 13 resemble 4-HPR in that all are potent inducers of apoptosis. Since 4-HPR acts through a receptor-independent mechanism, agent 11 was evaluated for ability to transactivate a RARE reporter through endogenous receptors in the SW962 vulvar carcinoma cell line. […] Nelson, S. Subramanian, G. M. Weerasekare, J. B. Gale, M. K. Patterson, Jr., B. Wang, W. Wang, S. Lu, T. C. Rowland, P. DiSivestro, C. Lindamood, D. L. Hill, and K. D. Berlin]. No induction of the retinoid receptors was observed although 9-cis-RA casued a 4 to 10 fold induction of RARE-driven transcription in the same experiment with the SW962 cell line.

retinoic acid receptors = assay: CV-1 co-transfection assay; format: cell-based

CC1(C)CC(C)(C)c2cc(NC(=S)Nc3ccc([N+](=O)[O-])cc3)ccc2S1 [heteroarotinoid 11]
induction of RARE-driven transcription [1]: No induction
transactivation of each of the retinoic acid receptors (retinoic acid receptors): No transactivation

— patent US6586460B1, “Heteroarotinoids containing urea or thiourea linker” (The Board of Regents for Oklahoma State University, priority 2001, dated 2003)
